From patent publication US11473034B2, “Highly stable and alkaline cleaning solutions and soluble surfactant” (EVONIK OPERATIONS GMBH, priority 2018, dated 2022)

Assay: Foaming properties (automated shake test, foam volume relative to solution and foam volume)
Assay type: physicochemical
Settings: 2 wt % in 45% KOH
Source text: Determining the Foaming Properties of Surfactants
Foaming results from surfactants occupying the air/solution interface to stabilize films of solution that encircle air under agitation. Surfactants may produce more or less foam and contribute to higher or lower stability of these foams. This characteristic of a surfactant may be shown by shaking a tube in a controlled, repeatable fashion (generally through the use of automation) and then measuring the volume of foam in the tube relative to the volume of both foam and solution. Numerous examples of variations on this method may be found in scientific literature, such as Amaral, das Neves, J., Oliveira, Â. Z., and Bahia, M. F., “Foamability of Detergent Solutions Prepared with Different Types of Surfactants and Waters”, Journal of Surfactants and Detergents, 11, 275-278 (2008).
The foaming properties of solutions of Monosodium Cyclohexylamine Dipropionate (Example 1), Monosodium Butyloxypropylamine Dipropionate (Example 2), and 1.5 Sodium Butyloxypropylaminopropylamine Tripropionate (Example 3), prepared as 2 wt % in 45% KOH, were examined. Samples of each solution were shaken vigorously in an automated apparatus to ensure identical treatment of each sample and the volume of foam relative to the total volume of solution and foam was determined.

Substance: 1.5 Sodium Butyloxypropylaminopropylamine Tripropionate [Example 3]
- Foam Volume (as Percentage of Solution and Foam Volume) (1 Minute): 57.5 Percentage of Solution and Foam Volume
- Foam Volume (as Percentage of Solution and Foam Volume) (3 Minutes): 53.1 Percentage of Solution and Foam Volume
- Foam Volume (as Percentage of Solution and Foam Volume) (Initial): 57.6 Percentage of Solution and Foam Volume
